Experiments:
CD8+ T cells [1] = settings: cited from earlier work
CD8+ T cells [2] = format: cell-based, human

In the case of YLQPRTFLL, the “CD8+ T cell response (in words)” value (CD8+ T cells [1]) is given as “strong CD8+ T cell response”, the “CD8+ T cell stimulation (in words)” value (CD8+ T cells [1]) is given as “strongly stimulate CD8+ T cells” and the “CD8+ T cell response, overall” value (CD8+ T cells [2]) is given as “all able to generate a polyfunctional CD8+ T cell response”.

Source: paper PMC8534114, “Molecular Basis of a Dominant SARS-CoV-2 Spike-Derived Epitope Presented by HLA-A*02:01 Recognised by a Public TCR” (Cells, 2021)
